According to article PMC5849714, “Direct coupling of detergent purified human mGlu5 receptor to the heterotrimeric G proteins Gq and Gs” (Scientific Reports, 2018):

Columns and labels:
human mGlu5 receptor [1] = target: T1, human mGlu5 receptor (Homo sapiens, UniProt P41594); assay: Bodipy-FL GTPγS activation of purified Gq/Gs by purified receptor ([…] ligand); pEC50 from IP-One assay in HEK293 cells; assay type: biochemical; design: gene GRM5; mGlu5-Δ856 (C-terminus truncated after Ala856)
Target sequence in this assay (P41594 21-856): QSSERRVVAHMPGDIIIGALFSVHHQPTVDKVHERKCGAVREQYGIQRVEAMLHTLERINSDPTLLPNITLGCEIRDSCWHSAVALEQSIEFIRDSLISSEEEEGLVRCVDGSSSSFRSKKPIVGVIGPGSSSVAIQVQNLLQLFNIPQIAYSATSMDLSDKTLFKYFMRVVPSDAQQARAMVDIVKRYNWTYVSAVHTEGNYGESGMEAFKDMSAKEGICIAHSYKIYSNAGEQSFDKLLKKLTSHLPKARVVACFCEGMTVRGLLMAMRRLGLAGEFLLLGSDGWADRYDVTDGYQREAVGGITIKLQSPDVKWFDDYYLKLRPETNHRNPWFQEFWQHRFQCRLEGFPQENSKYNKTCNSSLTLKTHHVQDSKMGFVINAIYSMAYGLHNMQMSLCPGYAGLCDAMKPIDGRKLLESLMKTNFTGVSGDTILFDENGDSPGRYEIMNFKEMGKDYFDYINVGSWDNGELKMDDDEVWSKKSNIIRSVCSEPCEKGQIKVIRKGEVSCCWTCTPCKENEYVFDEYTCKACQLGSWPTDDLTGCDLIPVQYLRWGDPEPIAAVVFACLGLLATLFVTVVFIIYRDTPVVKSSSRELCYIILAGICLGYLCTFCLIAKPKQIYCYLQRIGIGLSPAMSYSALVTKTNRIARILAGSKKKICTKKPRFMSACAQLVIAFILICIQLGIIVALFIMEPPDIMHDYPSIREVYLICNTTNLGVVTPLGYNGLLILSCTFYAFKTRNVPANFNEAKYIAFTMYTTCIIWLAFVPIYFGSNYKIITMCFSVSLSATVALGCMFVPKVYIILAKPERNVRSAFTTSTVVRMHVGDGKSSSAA

human mGlu5 receptor [2] = target: T1, human mGlu5 receptor; assay: IP-One accumulation in transfected HEK293 cells; assay type: cell-based; design: gene GRM5; full-length wild-type (SNAP-tagged)
Target sequence in this assay (P41594 21-1212): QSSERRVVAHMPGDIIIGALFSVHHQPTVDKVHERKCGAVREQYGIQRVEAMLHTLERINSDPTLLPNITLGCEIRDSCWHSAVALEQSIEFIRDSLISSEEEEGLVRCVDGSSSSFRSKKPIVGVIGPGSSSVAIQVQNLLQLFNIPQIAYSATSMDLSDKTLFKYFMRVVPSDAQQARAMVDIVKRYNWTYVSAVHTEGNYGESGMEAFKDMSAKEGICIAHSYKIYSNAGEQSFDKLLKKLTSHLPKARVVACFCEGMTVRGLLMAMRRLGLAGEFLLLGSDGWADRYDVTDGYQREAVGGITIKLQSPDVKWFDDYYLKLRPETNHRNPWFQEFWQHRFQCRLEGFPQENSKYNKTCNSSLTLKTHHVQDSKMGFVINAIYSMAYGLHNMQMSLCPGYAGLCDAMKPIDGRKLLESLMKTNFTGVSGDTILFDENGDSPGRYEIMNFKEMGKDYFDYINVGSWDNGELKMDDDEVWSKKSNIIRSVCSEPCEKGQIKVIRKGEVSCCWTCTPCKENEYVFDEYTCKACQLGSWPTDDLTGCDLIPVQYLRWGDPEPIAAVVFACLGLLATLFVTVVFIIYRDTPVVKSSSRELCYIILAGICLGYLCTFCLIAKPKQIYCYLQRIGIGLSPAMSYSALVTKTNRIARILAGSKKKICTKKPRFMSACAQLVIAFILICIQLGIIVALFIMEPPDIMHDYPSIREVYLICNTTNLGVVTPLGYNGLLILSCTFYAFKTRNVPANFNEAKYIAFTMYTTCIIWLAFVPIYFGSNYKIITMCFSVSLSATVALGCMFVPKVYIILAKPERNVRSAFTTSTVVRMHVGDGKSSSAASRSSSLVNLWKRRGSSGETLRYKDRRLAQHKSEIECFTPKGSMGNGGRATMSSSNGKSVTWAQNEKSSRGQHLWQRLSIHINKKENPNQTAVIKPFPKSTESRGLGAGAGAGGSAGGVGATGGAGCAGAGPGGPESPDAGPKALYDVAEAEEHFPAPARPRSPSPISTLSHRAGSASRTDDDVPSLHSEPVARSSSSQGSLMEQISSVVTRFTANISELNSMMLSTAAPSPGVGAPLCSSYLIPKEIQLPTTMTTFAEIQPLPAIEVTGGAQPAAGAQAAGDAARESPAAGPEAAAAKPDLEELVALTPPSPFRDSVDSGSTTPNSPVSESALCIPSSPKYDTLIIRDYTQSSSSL

| SMILES | EC50 (human mGlu5 receptor [1]) | EC50 (human mGlu5 receptor [2]) |
| --- | --- | --- |
| C[C@@H](NC(=O)c1ccc(C#Cc2cccc(F)c2)cn1)C(C)(C)O [VU0424465, (R)-5-((3-fluorophenyl)ethynyl)-N-(3-hydroxy-3-methylbutan-2-yl) picolinamide] | 2.95 nM |  |
| N[C@@H](Cn1oc(=O)[nH]c1=O)C(=O)O [quisqualate] |  | 30.9 nM |
